Publication PMC4138103 (PLoS ONE, 2014)
Read-outs that look alike come from different tables or passages of the source.

Tested on: Sprague-Dawley rats
Experiment: Clinical chemistry
Format: in vivo, Rattus norvegicus
Design: key to Cholesterol, Dose response / Triglyserides, Dose response / Glucose, Dose response / Albumin, Dose response / K, Dose response / Total bilirubin, Dose response: D: significant dose response (for results, see Table 2); T: significant trend
Settings: for CED, Glucose / CED, Potassium / CED-L, Glucose / CED-L, Potassium / CED, Alkaline phosphatase / CED, Chlolesterol / CED, Total Bilirubin / CED-L, Alkaline phosphatase / CED-L, Chlolesterol / CED-L, Total Bilirubin / CED, Albumin / CED-L, Albumin / CED, Total protein / CED, Triglycerides / CED-L, Total protein / CED-L, Triglycerides: adipose tissue concentration based; for Emax: Rattus norvegicus
Experimental: Spectrophotometric methods were used for the determination of serum total calcium, cholesterol, creatinine, glucose, triglycerides and urea. Serum sodium, potassium and chloride concentrations were measured directly by ion selective electrodes. The analyses were performed by a clinical chemistry analyzer (Konelab 30i, ThermoFisher Scientific, Vantaa, Finland). Plasma lactate dehydrogenase (LD) activity was measured according to the recommendations of the International Federation of Clinical Chemistry (IFCC 1994/I) using Konelab 60i clinical chemistry analyzer. Methods and results for liver related parameters (serum alanine aminotransferase [ALT] activity, alkaline phosphatase [ALP] activity, albumin, total protein and total bilirubin are reported separately.
Data were also analyzed using the BMD method, which is based on dose-response modeling of the full data set using a nested family of exponential and Hill models. The analyses were done on data of males and females combined, using sex as a covariate. […] In that case, different Critical Effect Doses (CEDs) and CEDs at the lowest bound of the confidence interval (CED-L) were generated for each sex. If no difference between sexes is detected, a CED and CED-Ls for the combined data is generated. However, this was also done if the curve fits are close, and separate analyses for males and females were then performed manually. CEDs and CED-Ls were calculated at the predefined Critical Effect Size (CES) of 5% (EFSA standard) or 10%.

[1] = females, total dose 0-1700 mg/kg bw
[2] = females, total dose 10 mg/kg bw
[3] = females, total dose 30 mg/kg bw
[4] = females, total dose 100 mg/kg bw
[5] = females, total dose 300 mg/kg bw
[6] = females, total dose 1000 mg/kg bw
[7] = females, total dose 1700 mg/kg bw

## Clc1cc(Cl)c(-c2cc(Cl)c(Cl)c(Cl)c2Cl)cc1Cl [PCB 180, 2,2′,3′,4,4′,5,5′-heptachlorobiphenyl]
F, CES 5%, model E2
  CED, Glucose: 4450 µg/g lipid
  CED, Potassium: 7900 µg/g lipid
  CED-L, Glucose: 2648 µg/g lipid
  CED-L, Potassium: 5086 µg/g lipid
F, CES 5%, model E4
  CED, Alkaline phosphatase: 308 µg/g lipid
  CED, Chlolesterol: 640 µg/g lipid
  CED, Total Bilirubin: 19.4 µg/g lipid
  CED-L, Alkaline phosphatase: 136 µg/g lipid
  CED-L, Chlolesterol: 387 µg/g lipid
  CED-L, Total Bilirubin: 3.77 µg/g lipid
F, CES 10%, model E2
  CED, Glucose: 9140 µg/g lipid
  CED, Potassium: 16200 µg/g lipid
  CED-L, Glucose: 5440 µg/g lipid
  CED-L, Potassium: 10450 µg/g lipid
F, CES 10%, model E4
  CED, Alkaline phosphatase: 701 µg/g lipid
  CED, Chlolesterol: 1330 µg/g lipid
  CED, Total Bilirubin: 48.2 µg/g lipid
  CED-L, Alkaline phosphatase: 309 µg/g lipid
  CED-L, Chlolesterol: 813 µg/g lipid
  CED-L, Total Bilirubin: 8.98 µg/g lipid
M, CES 5%, model E2
  CED, Albumin: 6750 µg/g lipid
  CED, Alkaline phosphatase: 2300 µg/g lipid
  CED, Glucose: 866 µg/g lipid
  CED-L, Albumin: 4696 µg/g lipid
  CED-L, Alkaline phosphatase: 1393 µg/g lipid
  CED-L, Glucose: 632 µg/g lipid
M, CES 5%, model E4
  CED, Chlolesterol: 177 µg/g lipid
  CED, Total protein: 1080 µg/g lipid
  CED, Triglycerides: 12.5 µg/g lipid
  CED-L, Chlolesterol: 91.4 µg/g lipid
  CED-L, Total protein: 575 µg/g lipid
  CED-L, Triglycerides: 7.26 µg/g lipid
M, CES 10%, model E2
  CED, Albumin: 13200 µg/g lipid
  CED, Alkaline phosphatase: 4730 µg/g lipid
  CED, Glucose: 1780 µg/g lipid
  CED-L, Albumin: 9174 µg/g lipid
  CED-L, Alkaline phosphatase: 2861 µg/g lipid
  CED-L, Glucose: 1297 µg/g lipid
M, CES 10%, model E4
  CED, Chlolesterol: 365 µg/g lipid
  CED, Total protein: 2970 µg/g lipid
  CED, Triglycerides: 26.2 µg/g lipid
  CED-L, Chlolesterol: 189 µg/g lipid
  CED-L, Total protein: 1629 µg/g lipid
  CED-L, Triglycerides: 15.2 µg/g lipid
F, model E2, controls vs high dose according to the fitted model, read-out: Maximum response, Glucose
  Emax: -12.2%
F, model E2, controls vs high dose according to the fitted model, read-out: Maximum response, Potassium
  Emax: -7.07%
F, model E4, controls vs high dose according to the fitted model, read-out: Maximum response, Alkaline phosphatase
  Emax: -25.7%
F, model E4, controls vs high dose according to the fitted model, read-out: Maximum response, Chlolesterol
  Emax: 53.8%
F, model E4, controls vs high dose according to the fitted model, read-out: Maximum response, Total Bilirubin
  Emax: -18.2%
females, controls vs high dose, fitted model, read-out: Alkaline phosphatase, Maximum response
  Emax: -25.7%
females, controls vs high dose, fitted model, read-out: Chlolesterol, Maximum response
  Emax: 54.1%
females, controls vs high dose, fitted model, read-out: Glucose, Maximum response
  Emax: -12.1%
females, controls vs high dose, fitted model, read-out: Potassium, Maximum response
  Emax: -7%
females, controls vs high dose, fitted model, read-out: Total Bilirubin, Maximum response
  Emax: -17.9%
males, controls vs high dose, fitted model, read-out: Albumin, Maximum response
  Emax: 5.5%
males, controls vs high dose, fitted model, read-out: Alkaline phosphatase, Maximum response
  Emax: -14.9%
males, controls vs high dose, fitted model, read-out: Chlolesterol, Maximum response
  Emax: 80.8%
males, controls vs high dose, fitted model, read-out: Glucose, Maximum response
  Emax: -35.6%
males, controls vs high dose, fitted model, read-out: Total protein, Maximum response
  Emax: 14.1%
males, controls vs high dose, fitted model, read-out: Triglycerides, Maximum response
  Emax: -62.2%
Model E2, controls vs high dose according to the fitted model, read-out: Maximum response, Albumin
  Emax: 5.49%
Model E2, controls vs high dose according to the fitted model, read-out: Maximum response, Alkaline phosphatase
  Emax: -15.4%
Model E2, controls vs high dose according to the fitted model, read-out: Maximum response, Glucose
  Emax: -35.4%
Model E4, controls vs high dose according to the fitted model, read-out: Maximum response, Chlolesterol
  Emax: 81.7%
Model E4, controls vs high dose according to the fitted model, read-out: Maximum response, Total protein
  Emax: 14.2%
Model E4, controls vs high dose according to the fitted model, read-out: Maximum response, Triglycerides
  Emax: -62.5%
[1]
  Cholesterol, Dose response: T
  Glucose, Dose response: T
  K, Dose response: T
  Total bilirubin, Dose response: T
females, total dose 3 mg/kg bw
  Albumin: 33.8 g/L
  Cholesterol: 3.11 mmol/L
  Cl: 97.1 mmol/L
  Creatinine: 51.7 µmol/L
  Glucose: 13.7 mmol/L
  K: 5.59 mmol/L
  Na: 142.1 mmol/L
  Total Ca: 3.40 mmol/L
  Total bilirubin: 1.59 µmol/L
  Triglyserides: 0.91 mmol/L
  Urea: 9.9 mmol/L
[2]
  Albumin: 33.9 g/L
  Cholesterol: 3.35 mmol/L
  Cl: 97.2 mmol/L
  Creatinine: 53.8 µmol/L
  Glucose: 14.4 mmol/L
  K: 5.70 mmol/L
  Na: 143.6 mmol/L
  Total Ca: 3.42 mmol/L
  Total bilirubin: 1.66 µmol/L
  Triglyserides: 0.85 mmol/L
  Urea: 9.4 mmol/L
[3]
  Albumin: 32.7 g/L
  Cholesterol: 3.05 mmol/L
  Cl: 97.3 mmol/L
  Creatinine: 48.6 µmol/L
  Glucose: 13.6 mmol/L
  K: 5.55 mmol/L
  Na: 142.7 mmol/L
  Total Ca: 3.46 mmol/L
  Total bilirubin: 1.40 µmol/L
  Triglyserides: 1.19 mmol/L
  Urea: 9.5 mmol/L
[4]
  Albumin: 33.1 g/L
  Cholesterol: 3.54 mmol/L
  Cl: 97.0 mmol/L
  Creatinine: 51.3 µmol/L
  Glucose: 13.8 mmol/L
  K: 5.75 mmol/L
  Na: 142.5 mmol/L
  Total Ca: 3.44 mmol/L
  Total bilirubin: 1.56 µmol/L
  Triglyserides: 0.89 mmol/L
  Urea: 8.6 mmol/L
[5]
  Albumin: 33.5 g/L
  Cholesterol: 3.52 mmol/L
  Cl: 96.8 mmol/L
  Creatinine: 47.8 µmol/L
  Glucose: 14.0 mmol/L
  K: 5.54 mmol/L
  Na: 142.6 mmol/L
  Total Ca: 3.56 mmol/L
  Total bilirubin: 1.40 µmol/L
  Triglyserides: 1.12 mmol/L
  Urea: 10.1 mmol/L
[6]
  Albumin: 33.0 g/L
  Cholesterol: 4.16 mmol/L
  Cl: 97.2 mmol/L
  Creatinine: 51.9 µmol/L
  Glucose: 12.6 mmol/L
  K: 5.43 mmol/L
  Na: 142.7 mmol/L
  Total Ca: 3.40 mmol/L
  Total bilirubin: 1.43 µmol/L
  Triglyserides: 0.89 mmol/L
  Urea: 9.3 mmol/L
[7]
  Albumin: 33.3 g/L
  Cholesterol: 4.94 mmol/L
  Cl: 97.7 mmol/L
